For 8 molecules, TGI results are on record in PubChem BioAssay (NCI).

Test systems include OVCAR-8 ovarian; HCC-2998 colon; SR leukemia; SK-MEL-5 melanoma; IGROV1 ovarian; COLO 205 colon; SK-MEL-28 melanoma; MALME-3M melanoma; T-47D breast; TK-10 renal; M14 melanoma; UACC-257 melanoma; SF-539 CNS; RXF 393 renal; SK-OV-3 ovarian; DU-145 prostate; CAKI-1 renal; HS 578T breast; UACC-62 melanoma.
Common to all, as to assay: growth of human tumour cells (NCI), 48 h

Structures are written as SMILES.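 Values below derive from 48-hour exposures of cells grown in 96-well plates, with endpoints linearly interpolated between the two concentrations bracketing the appropriate inhibition level. At the TGI there is no net growth.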 Bounds are passed on as bounds.

Consider `[N-]=[N+]=NC1C(O)C(CO)OC1n1ccc(N)nc1=O` (configuration not stated), for which the TGI in the experiment with OVCAR-8 ovarian is above 625 µM; with HCC-2998 colon it was above 581 µM; in the experiment with SR leukemia it was 296 µM; in the experiment on SK-MEL-5 melanoma it was above 625 µM; with IGROV1 ovarian, above 625 µM; with COLO 205 colon it was above 568 µM. Besides, the TGI was above 625 µM with SK-MEL-28 melanoma; above 625 µM in the experiment on MALME-3M melanoma; above 189 µM with T-47D breast; above 625 µM with TK-10 renal; 186 µM in the experiment on M14 melanoma; above 625 µM in the experiment on UACC-257 melanoma. In addition, the TGI in the experiment on SF-539 CNS was 455 µM; in the experiment on RXF 393 renal, above 602 µM; in the experiment with SK-OV-3 ovarian, above 625 µM; in the experiment with DU-145 prostate, above 625 µM; in the experiment with CAKI-1 renal it was above 625 µM; in the experiment with HS 578T breast, above 625 µM. The TGI in the experiment on UACC-62 melanoma came to 350 µM.

With `CC(=O)OCC1(C)C(O)CCC2(C)C1CCC1CC3CC12CCC3(O)CO` (configuration not stated), the TGI in the experiment with OVCAR-8 ovarian was above 100 µM; in the experiment on HCC-2998 colon it was above 100 µM; in the experiment on SR leukemia, above 29.4 µM; in the experiment with SK-MEL-5 melanoma it was above 100 µM; in the experiment on IGROV1 ovarian it was above 100 µM; in the experiment on COLO 205 colon it was above 100 µM. Besides, the TGI with SK-MEL-28 melanoma, in the experiment on MALME-3M melanoma, in the experiment on T-47D breast, with TK-10 renal, in the experiment on M14 melanoma and in the experiment on UACC-257 melanoma was above 100 µM in each case. Further, the TGI with SF-539 CNS, with RXF 393 renal, with SK-OV-3 ovarian, in the experiment with DU-145 prostate, with CAKI-1 renal and with HS 578T breast was above 100 µM each time. In addition, the TGI with UACC-62 melanoma was above 100 µM.

As for `C=C1c2nc3ccccc3n2C=C(c2ccccc2)N1c1ccc(Cl)cc1`, the TGI in the experiment with OVCAR-8 ovarian was above 93.1 µM; in the experiment with HCC-2998 colon it was above 100 µM; in the experiment with SR leukemia it was above 100 µM; in the experiment on SK-MEL-5 melanoma it was above 100 µM; in the experiment with IGROV1 ovarian, above 89.5 µM; in the experiment on COLO 205 colon it was above 100 µM. Moreover, the TGI was above 100 µM in the experiment on SK-MEL-28 melanoma; 51.2 µM in the experiment with MALME-3M melanoma; above 100 µM in the experiment with T-47D breast; 57.2 µM in the experiment with TK-10 renal; above 75.2 µM in the experiment with M14 melanoma; above 100 µM with UACC-257 melanoma. Further, the TGI with SF-539 CNS is 20.9 µM; in the experiment on RXF 393 renal, above 67.6 µM; in the experiment on SK-OV-3 ovarian, above 86.7 µM; in the experiment with DU-145 prostate, above 100 µM; in the experiment with CAKI-1 renal, 21.6 µM; with HS 578T breast, above 59.1 µM. In the experiment on UACC-62 melanoma, this molecule gave a TGI above 100 µM.

For `COc1ccc(N2C(=O)C(Cl)C2c2cc3cc(Br)ccc3nc2Cl)cc1` (configuration not stated), the TGI in the experiment with OVCAR-8 ovarian is above 25 µM; in the experiment with HCC-2998 colon, 7.52 µM; in the experiment with SR leukemia, 6.82 µM; in the experiment with SK-MEL-5 melanoma, 8.63 µM; in the experiment with IGROV1 ovarian, 10.6 µM; with COLO 205 colon, 9.11 µM. Further, the TGI in the experiment on SK-MEL-28 melanoma was above 25 µM; in the experiment on MALME-3M melanoma it was 10.1 µM; with T-47D breast, above 25 µM; in the experiment with TK-10 renal it was 15.5 µM; with M14 melanoma it was 11 µM; in the experiment with UACC-257 melanoma it was 11.9 µM. For the same molecule, the TGI was 10 µM in the experiment on SF-539 CNS; 9.38 µM in the experiment with RXF 393 renal; above 25 µM with SK-OV-3 ovarian; 21.2 µM in the experiment with DU-145 prostate; 18.9 µM in the experiment with CAKI-1 renal; above 25 µM with HS 578T breast. In the experiment on UACC-62 melanoma, this molecule displayed a TGI of 8.86 µM.

With `Cc1cc(N2CCOCC2)nc2ccc(Cc3ccc4nc(N5CCOCC5)cc(C)c4c3)cc12`, the TGI in the experiment on OVCAR-8 ovarian was above 100 µM; with HCC-2998 colon, 34.7 µM; with SR leukemia it was above 100 µM; with SK-MEL-5 melanoma it was 36.6 µM; with IGROV1 ovarian it was above 100 µM; with COLO 205 colon it was 26.8 µM. Further, the TGI is above 100 µM in the experiment on SK-MEL-28 melanoma; above 100 µM in the experiment with MALME-3M melanoma; 52.2 µM with T-47D breast; above 100 µM in the experiment with TK-10 renal; above 100 µM in the experiment with M14 melanoma; above 100 µM in the experiment with UACC-257 melanoma. Further, the TGI in the experiment on SF-539 CNS was 71.3 µM; in the experiment with RXF 393 renal it was above 100 µM; with SK-OV-3 ovarian, above 100 µM; in the experiment with DU-145 prostate it was above 100 µM; in the experiment with CAKI-1 renal it was above 100 µM; with HS 578T breast, above 100 µM. The TGI with UACC-62 melanoma was above 100 µM.

Consider `Cn1nnc2c(C(N)=S)ncn2c1=O`, for which the TGI in the experiment on OVCAR-8 ovarian, with HCC-2998 colon, in the experiment on SR leukemia, in the experiment with SK-MEL-5 melanoma, with IGROV1 ovarian and with COLO 205 colon was above 100 µM throughout. In addition, the TGI in the experiment on SK-MEL-28 melanoma, with MALME-3M melanoma, in the experiment on T-47D breast, with TK-10 renal, in the experiment on M14 melanoma and in the experiment on UACC-257 melanoma was above 100 µM in each case. Besides, the TGI with SF-539 CNS, in the experiment with RXF 393 renal, with SK-OV-3 ovarian, in the experiment with DU-145 prostate, in the experiment with CAKI-1 renal and in the experiment on HS 578T breast was above 100 µM in each case. The molecule also showed a TGI in the experiment on UACC-62 melanoma above 100 µM.

Turning to `C/C=C/c1cc2c(cc1O)CC[C@@H]1[C@@H]2CC[C@]2(C)[C@@H](O)CC[C@@H]12`, the TGI with OVCAR-8 ovarian is 18.1 µM; in the experiment with HCC-2998 colon it was 7.13 µM; with SR leukemia, above 19.6 µM; in the experiment on SK-MEL-5 melanoma it was 14.2 µM; in the experiment with IGROV1 ovarian, 19 µM; with COLO 205 colon, 24.4 µM. Besides, the TGI with SK-MEL-28 melanoma turned out to be 21.6 µM; in the experiment on MALME-3M melanoma, 23.1 µM; in the experiment with T-47D breast it was 41.7 µM; with TK-10 renal, 27.3 µM; in the experiment on M14 melanoma it was 4.05 µM; in the experiment on UACC-257 melanoma, 22.4 µM. In addition, the TGI in the experiment on SF-539 CNS is 0.15 µM; in the experiment with RXF 393 renal, 1.3 µM; in the experiment with SK-OV-3 ovarian, 15.3 µM; in the experiment with DU-145 prostate, 3.05 µM; in the experiment with CAKI-1 renal it was 21.1 µM; in the experiment on HS 578T breast, 22.3 µM. Moreover, the TGI in the experiment on UACC-62 melanoma was 15.4 µM.

As to `CC(=O)Nc1cc(Cl)cc(Cl)c1O`, the TGI with OVCAR-8 ovarian, in the experiment with HCC-2998 colon, in the experiment on SR leukemia, in the experiment with SK-MEL-5 melanoma, in the experiment on IGROV1 ovarian and in the experiment on COLO 205 colon was above 100 µM in each case. Also, the TGI with SK-MEL-28 melanoma, in the experiment on MALME-3M melanoma, with T-47D breast, in the experiment on TK-10 renal, in the experiment with M14 melanoma and with UACC-257 melanoma was above 100 µM throughout. Besides, the TGI in the experiment on SF-539 CNS, in the experiment with RXF 393 renal, with SK-OV-3 ovarian, in the experiment on DU-145 prostate, in the experiment with CAKI-1 renal and with HS 578T breast was above 100 µM each time. Moreover, the TGI in the experiment on UACC-62 melanoma was above 100 µM.
